Laboratory results as given in patent US20220289708A1, “SUBSTITUTED N-PHENYL URACILS, SALTS THEREOF AND THEIR USE AS HERBICIDAL AGENTS” (Bayer Aktiengesellschaft, priority 2019, published 2022).

How the values were obtained:
Assay type in all cases: in vivo
Oryza sativa = assay: Post-emergence crop plant compatibility
Procedure: a. Post-Emergence Herbicidal Action and Crop Plant Compatibility
(§1) Seeds of monocotyledonous and dicotyledonous weeds and crop plants were placed in sandy loam in plastic or wood-fiber pots, covered with soil and cultivated in a greenhouse under controlled growth conditions. 2 to 3 weeks after sowing, the test plants were treated at the one-leaf stage. The compounds of the invention, formulated in the form of wettable powders (WP) or as emulsion concentrates (EC), were then sprayed onto the green parts of the plants as aqueous suspension or emulsion with addition of 0.5% additive at a water application rate of 600 l/ha (converted). After the test plants had been kept in the greenhouse under optimum growth conditions for about 3 weeks, the activity of the preparations was rated visually in comparison to untreated controls. For example, 100% activity=the plants have died, 0% activity=like control plants.
Tables A16 to A19 below show the crop plant compatibilities of selected compounds of the general formula (I) according to Tables I.1 to I.36 at an application rate corresponding to 5 g/ha or 20 g/ha, which were obtained in experiments according to the experimental procedure mentioned above. Here, the observed effects on selected crop plants are stated in comparison to the untreated controls (values in %).

Lolium rigidum = assay: Post-emergence herbicidal action; conditions: application rate 20 g/ha, rated visually after about 3 weeks vs untreated controls
Procedure: as §1, with “a. Post-Emergence Herbicidal Action and Crop Plant Compatibility Seeds” for “Seeds”, “plants. Tables A1 to A15 below show the effects of selected compounds of the general formula (I) according to Tables I.1 to I.36 on various harmful plants and at an application rate corresponding to 20 g/ha and less, which were obtained by the experimental procedure mentioned above.” for “plants.”

Pharbitis purpurea = assay: Post-emergence herbicidal action; conditions: application rate 20 g/ha, rated visually after about 3 weeks vs untreated controls
Procedure: as §1, with “a. Post-Emergence Herbicidal Action and Crop Plant Compatibility Seeds” for “Seeds”, “plants. Tables A1 to A15 below show the effects of selected compounds of the general formula (I) according to Tables I.1 to I.36 on various harmful plants and at an application rate corresponding to 20 g/ha and less, which were obtained by the experimental procedure mentioned above.” for “plants.”

Echinochloa crus-galli = assay: Post-emergence herbicidal action; conditions: application rate 20 g/ha, rated visually after about 3 weeks vs untreated controls
Procedure: as §1, with “a. Post-Emergence Herbicidal Action and Crop Plant Compatibility Seeds” for “Seeds”, “plants. Tables A1 to A15 below show the effects of selected compounds of the general formula (I) according to Tables I.1 to I.36 on various harmful plants and at an application rate corresponding to 20 g/ha and less, which were obtained by the experimental procedure mentioned above.” for “plants.”

Amaranthus retroflexus = assay: Post-emergence herbicidal action; conditions: application rate 20 g/ha, rated visually after about 3 weeks vs untreated controls
Procedure: as §1, with “a. Post-Emergence Herbicidal Action and Crop Plant Compatibility Seeds” for “Seeds”, “plants. Tables A1 to A15 below show the effects of selected compounds of the general formula (I) according to Tables I.1 to I.36 on various harmful plants and at an application rate corresponding to 20 g/ha and less, which were obtained by the experimental procedure mentioned above.” for “plants.”

Digitaria sanguinalis = assay: Post-emergence herbicidal action; conditions: application rate 20 g/ha, rated visually after about 3 weeks vs untreated controls
Procedure: as §1, with “a. Post-Emergence Herbicidal Action and Crop Plant Compatibility Seeds” for “Seeds”, “plants. Tables A1 to A15 below show the effects of selected compounds of the general formula (I) according to Tables I.1 to I.36 on various harmful plants and at an application rate corresponding to 20 g/ha and less, which were obtained by the experimental procedure mentioned above.” for “plants.”

Alopecurus myosuroides = assay: Post-emergence herbicidal action; conditions: application rate 20 g/ha, rated visually after about 3 weeks vs untreated controls
Procedure: as §1, with “a. Post-Emergence Herbicidal Action and Crop Plant Compatibility Seeds” for “Seeds”, “plants. Tables A1 to A15 below show the effects of selected compounds of the general formula (I) according to Tables I.1 to I.36 on various harmful plants and at an application rate corresponding to 20 g/ha and less, which were obtained by the experimental procedure mentioned above.” for “plants.”

Veronica persica = assay: Post-emergence herbicidal action; conditions: application rate 20 g/ha
Procedure: as §1, with “a. Post-Emergence Herbicidal Action and Crop Plant Compatibility Seeds” for “Seeds”, “plants. Tables A1 to A15 below show the effects of selected compounds of the general formula (I) according to Tables I.1 to I.36 on various harmful plants and at an application rate corresponding to 20 g/ha and less, which were obtained by the experimental procedure mentioned above.” for “plants.”

Viola tricolor = assay: Post-emergence herbicidal action; conditions: application rate 20 g/ha
Procedure: as §1, with “a. Post-Emergence Herbicidal Action and Crop Plant Compatibility Seeds” for “Seeds”, “plants. Tables A1 to A15 below show the effects of selected compounds of the general formula (I) according to Tables I.1 to I.36 on various harmful plants and at an application rate corresponding to 20 g/ha and less, which were obtained by the experimental procedure mentioned above.” for “plants.”

Avena fatua = assay: Post-emergence herbicidal action; conditions: application rate 20 g/ha, rated visually after about 3 weeks vs untreated controls
Procedure: as §1, with “a. Post-Emergence Herbicidal Action and Crop Plant Compatibility Seeds” for “Seeds”, “plants. Tables A1 to A15 below show the effects of selected compounds of the general formula (I) according to Tables I.1 to I.36 on various harmful plants and at an application rate corresponding to 20 g/ha and less, which were obtained by the experimental procedure mentioned above.” for “plants.”

Abutilon theophrasti = assay: Post-emergence herbicidal action; conditions: application rate 20 g/ha, rated visually after about 3 weeks vs untreated controls
Procedure: as §1, with “a. Post-Emergence Herbicidal Action and Crop Plant Compatibility Seeds” for “Seeds”, “plants. Tables A1 to A15 below show the effects of selected compounds of the general formula (I) according to Tables I.1 to I.36 on various harmful plants and at an application rate corresponding to 20 g/ha and less, which were obtained by the experimental procedure mentioned above.” for “plants.”

Setaria viridis = assay: Post-emergence herbicidal action; conditions: application rate 20 g/ha, rated visually after about 3 weeks vs untreated controls
Procedure: as §1, with “a. Post-Emergence Herbicidal Action and Crop Plant Compatibility Seeds” for “Seeds”, “plants. Tables A1 to A15 below show the effects of selected compounds of the general formula (I) according to Tables I.1 to I.36 on various harmful plants and at an application rate corresponding to 20 g/ha and less, which were obtained by the experimental procedure mentioned above.” for “plants.”

Matricaria inodora = assay: Post-emergence herbicidal action; conditions: application rate 20 g/ha, rated visually after about 3 weeks vs untreated controls
Procedure: as §1, with “a. Post-Emergence Herbicidal Action and Crop Plant Compatibility Seeds” for “Seeds”, “plants. Tables A1 to A15 below show the effects of selected compounds of the general formula (I) according to Tables I.1 to I.36 on various harmful plants and at an application rate corresponding to 20 g/ha and less, which were obtained by the experimental procedure mentioned above.” for “plants.”

Polygonum convolvulus = assay: Post-emergence herbicidal action; conditions: application rate 20 g/ha
Procedure: as §1, with “a. Post-Emergence Herbicidal Action and Crop Plant Compatibility Seeds” for “Seeds”, “plants. Tables A1 to A15 below show the effects of selected compounds of the general formula (I) according to Tables I.1 to I.36 on various harmful plants and at an application rate corresponding to 20 g/ha and less, which were obtained by the experimental procedure mentioned above.” for “plants.”

Oryza sativa (efficacy in %) (Oryza sativa; application rate 5 g/ha)	Oryza sativa (efficacy in %) (Oryza sativa; application rate 20 g/ha)	Structure (SMILES)	Lolium rigidum (efficacy in %) (Lolium rigidum)	Pharbitis purpurea (efficacy in %) (Pharbitis purpurea)	Echinochloa crus-galli (efficacy in %) (Echinochloa crus-galli)	Amaranthus retroflexus (efficacy in %) (Amaranthus retroflexus)	Digitaria sanguinalis (efficacy in %) (Digitaria sanguinalis)	Alopecurus myosuroides (efficacy in %) (Alopecurus myosuroides)	Veronica persica (efficacy in %) (Veronica persica)	Viola tricolor (efficacy in %) (Viola tricolor)	Avena fatua (efficacy in %) (Avena fatua)	Abutilon theophrasti (efficacy in %) (Abutilon theophrasti)	Setaria viridis (efficacy in %) (Setaria viridis)	Matricaria inodora (efficacy in %) (Matricaria inodora)	Polygonum convolvulus (efficacy in %) (Polygonum convolvulus)
20%	–	Cn1c(C(F)(F)F)cc(=O)n(-c2cc(Sc3cccnc3OCC(=O)OC3COC3)c(Cl)cc2F)c1=O [I.1-115]	80%	100%	100%	100%	100%	100%	100%	100%	80%	100%	100%	100%	–
20%	–	Cn1c(C(F)(F)F)cc(=O)n(-c2cc(Sc3cccnc3OCC(=O)OCC#N)c(Cl)cc2F)c1=O [I.1-176]	80%	100%	100%	100%	100%	100%	100%	100%	90%	100%	100%	100%	–
0%	–	Cn1c(C(F)(F)F)cc(=O)n(-c2cc(Sc3cccnc3OCC(=O)OCc3ccccn3)c(Cl)cc2F)c1=O [I.1-286]	80%	100%	100%	100%	–	100%	100%	100%	80%	100%	–	100%	–
–	–	Cn1c(C(F)(F)F)cc(=O)n(-c2cc(Oc3cccnc3OCC(=O)OCC3CCCO3)c(Br)cc2F)c1=O (stereo not drawn) [I.16-71]	90%	100%	100%	100%	100%	100%	100%	100%	90%	100%	100%	100%	100%
–	–	Cn1c(C(F)(F)F)cc(=O)n(-c2cc(Oc3cccnc3OCC(=O)OCC#N)c(Br)cc2F)c1=O [I.16-176]	80%	100%	100%	100%	100%	100%	100%	100%	90%	100%	100%	100%	90%
–	–	Cn1c(C(F)(F)F)cc(=O)n(-c2cc(Oc3cccnc3OCC(=O)OCC3OCCO3)c(Br)cc2F)c1=O [I.16-424]	80%	100%	100%	100%	100%	100%	100%	100%	90%	100%	100%	100%	100%
–	20%	COCCOC(=O)COc1ncc(F)cc1Sc1cc(-n2c(=O)cc(C(F)(F)F)n(C)c2=O)c(F)cc1Cl [I.31-1]	80%	100%	100%	100%	100%	90%	100%	100%	–	100%	100%	100%	–
–	20%	COCCOCCOC(=O)COc1ncc(F)cc1Sc1cc(-n2c(=O)cc(C(F)(F)F)n(C)c2=O)c(F)cc1Cl [I.31-23, 2-(2-Methoxyethoxy)ethyl {[3-({5-[3-methyl-2,6-dioxo-4-(trifluoromethyl)-3,6-dihydropyrimidin-1(2H)-yl]-2-chloro-4-fluorophenyl}sulfanyl)-5-fluoropyridin-2-yl]oxy}acetate]	–	100%	100%	100%	100%	90%	100%	100%	–	100%	100%	100%	–
–	–	COCCOC(=O)COc1ncccc1Oc1cc(-n2c(=O)cc(C(F)(F)F)n(C)c2=O)c(F)cc1C#N [I.35-1]	80%	100%	100%	100%	100%	100%	100%	100%	100%	100%	100%	100%	100%
–	–	COCCOC(=O)COc1ncc(F)cc1Oc1cc(-n2c(=O)cc(C(F)(F)F)n(C)c2=O)c(F)cc1Cl [I.36-1]	90%	100%	100%	100%	100%	100%	100%	100%	100%	100%	100%	100%	100%
–	–	Cn1c(C(F)(F)F)cc(=O)n(-c2cc(Oc3cc(F)cnc3OCC(=O)OCc3ccccn3)c(Cl)cc2F)c1=O [I.36-286]	80%	100%	100%	100%	100%	100%	100%	100%	80%	100%	100%	90%	100%
